Measurements published in patent US20070015813A1, “Treatment of protein folding disorders” (QUEEN'S UNIVERSITY AT KINGSTON, priority 2005, published 2007).

What was measured:
tau441 = molecular target: T1, tau441 (Homo sapiens, UniProt P10636); experiment: Kinetic Thioflavin S (ThS) assay of tau441 aggregation; assay type: biochemical; details: for tau aggregation in the absence of heparin inducer: heparin omitted
T1 construct: (expression construct); host or cells: E. coli BL21 D3
Protocol: The tau441 expression construct [L Buee et al. (2000). Brain Research Reviews 33:95-130] was purchased (Bioclon Inc., San Diego, Calif.) already transformed in BL21 D3 bacterial cells (Novagen/EMD Biosciences) for protein expression. Cells were grown and induced with IPTG according to Novagen's protocol. To lyse cells, Cellytic B reagent (Sigma) was used with lysozyme protease inhibitors (Sigma) and benzonase (Novagen/EMD Biosciences), according to manufacturer's methods. Lysate was cleared by centrifugation for 20 min at 10,000 RPM (SS34 rotor, Sorvall RC2b centrifuge) at 4° C. Protein was purified from the soluble fraction. Once purified, tau441 was stored at −78° C. as frozen aliquots (8.3 mg/mL, 60 μL) in Tris-HCl (50 mM, pH 7.4) until used.
Frozen aliquots of tau441 (8.3 mg/mL, 60 μL) in Tris-HCl (50 mM, pH 7.4) were allowed to thaw at room temperature (RT) before being diluted with Tris-HCl (2.64 mL, 50 mM, pH 7.4) containing dithiothreitol (DTT, 1 mM) to prevent disulfide bonds and NaN3 (50 μM) to prevent bacterial growth. After allowing to stand at RT for 1 h, Thioflavin S (ThS) was added (2.5 μL, 10.8 mM), followed by the aggregation inducer heparin (20 μL, 1.08 g/mL).
Aliquots (200 μL) of Aβ^1-40, Aβ^1-42, tau441 or α-synuclein with ThT or ThS were added to wells of a black polystyrene 96-well plate, followed by 2 μL of a compound in DMSO (various concentrations), or DMSO alone (controls). For α-synuclein, sodium dodecyl sulfate solution (2.0 μL, 30 mM) was also added to each well to induce aggregation. Incubations were performed in triplicate and were taken to contain 20 μM Aβ^1-40 or Aβ^1-42, 6 μM tau441 or 4 μM α-synuclein. Plates were covered with clear polystyrene lids and incubated at 37° C. in a GENios microplate reader obtained from Tecan Group Limited, Mannedorf, Zurich. For Aβ^1-40, tau441 and α-synuclein, fluorescence readings (λex=450 nm, λem=480 nm) were taken every 15 min., after first shaking at high intensity for 15 sec. and allowing to settle for 10 sec. before each reading. For Aβ^1-42, readings were taken every 5 min.
Aggregation conditions: tau441 at a concentration of either 10 μM (A) or 4 μM (B,C,D,E) was incubated in covered black 96-well polystyrene microplates alone or with 100 (A) or 50 μM compound (B,C,D,E), 5 μM ThS, pH 7.4, Tris-HCl (50 mM) containing NaN3 (50 μM), and either 1% MeOH (A) or 1% DMSO (B,C,D,E). Plates were heated at 37° C. in a Tecan GENios microplate reader. All incubations performed in triplicate, except for compound 0c in (A), which had n=1. Fluorescence readings: fluorescence measured every 15 min. (λex=450 nm, λem=480 nm) after shaking for 15 sec. and pausing 10 sec. before taking measurement. Values are the mean of three replicates. Error bars, sometimes not visible due to small size, represent standard deviation of the mean.
Aggregation conditions: tau441 at a concentration of 4 μM was incubated in covered black 96-well polystyrene microplates alone or with 50 μM (A,B,C) or 1 mM compound (D), 5 μM ThS, pH 7.4, Tris-HCl (50 mM) containing NaN3 (50 μM), and 1% DMSO. Plates were heated at 37° C. in a Tecan GENios microplate reader. All incubations performed in triplicate. Fluorescence readings: fluorescence measured every 15 min. (λex=450 nm, λem=480 nm) after shaking for 15 sec. and pausing 10 sec. before taking measurement. Values are the mean of three replicates. Error bars, sometimes not visible due to small size, represent standard deviation of the mean.

Aβ1-40 = molecular target: T2, Aβ1-40 (Homo sapiens, UniProt P05067); experiment: Aβ1-40 disaggregation assay; assay type: biochemical; details: compound added after incubating at 37° C. for 46 hrs., ThT fluorescence
T2 construct: Aβ^1-40 (AnaSpec, San Jose, Calif., lots 14212, 34862 and 34889); purchased AnaSpec, San Jose, Calif
T2 sequence (P05067 672-711 limits assumed): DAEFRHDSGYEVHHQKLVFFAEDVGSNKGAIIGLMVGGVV
Protocol: Aβ^1-40 was allowed to aggregate under conditions described in Thioflavin T Aggregation Assay except that no DMSO was added initially. After 46 hrs., compound in DMSO or vehicle was added (2 μL) and the fluorescence measured every 15 min. as detailed above. […] FIG. 3 depicts dose-response curves for inhibition of Aβ^1-40 aggregation by 0j and positive control, morin. FIG. 4 depicts the inhibition of Aβ^1-40 aggregation by 0c in “seeded” ThT assay. FIG. 5 depicts disaggregation of Aβ^1-40 by 0c and positive control, morin. After incubating at 37° C. for 46 hrs. 0c, morin or vehicle were added as DMSO solutions (1:100) and the fluorescence measured every 15 min.

T1 sequence (P10636 1-441 isoform P10636-8): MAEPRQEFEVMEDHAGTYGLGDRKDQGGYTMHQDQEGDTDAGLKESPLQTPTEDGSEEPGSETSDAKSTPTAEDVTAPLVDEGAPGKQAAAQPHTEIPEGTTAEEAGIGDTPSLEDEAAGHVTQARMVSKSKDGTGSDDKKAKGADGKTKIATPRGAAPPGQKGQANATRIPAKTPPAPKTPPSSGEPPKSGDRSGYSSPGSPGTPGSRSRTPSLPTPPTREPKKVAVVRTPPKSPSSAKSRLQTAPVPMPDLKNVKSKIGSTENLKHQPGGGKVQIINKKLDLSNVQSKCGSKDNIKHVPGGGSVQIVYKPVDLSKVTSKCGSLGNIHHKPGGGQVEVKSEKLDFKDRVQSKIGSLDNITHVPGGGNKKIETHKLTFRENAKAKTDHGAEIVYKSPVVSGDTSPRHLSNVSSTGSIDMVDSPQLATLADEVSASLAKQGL

Row | SMILES | tau aggregation in the absence of heparin inducer (tau441) | disaggregation of Aβ1-40 (Aβ1-40) | effect on tau fibrillization (ThS fluorescence) (tau441; tau441 4 or 10 μM, 50 to 100 μM compound, 5 μM ThS, heparin inducer, pH 7.4, 37° C.)
1 | O=C(O)c1ccc2[nH]cc(-c3c[nH]c4ccc(Br)cc34)c2c1 [0c, 3-(5-bromo-indol-3-yl)-indole-5-carboxylic Acid] | inhibited tau aggregation | disaggregation | –
2 | O=c1c(O)c(-c2ccc(O)cc2O)oc2cc(O)cc(O)c12 [morin] | inhibited tau aggregation | disaggregation | inhibition of tau fibrillization
